Assay results reported in patent US4178442A, “Novel cinnamoyles piperazines and homopiperazines, the method of preparing them and their application in therapeutics” (Delalande S. A., priority 1977, dated 1979).
Like-named read-outs stand apart in the source and are kept apart here.

Test system: anaesthetized dog
Assay: Antiangorous activity on anaesthetized dog: consumption of oxygen in the left ventricule and cardiac effort (KATZ's index)
Assay type: in vivo
Details: for inhibition in vivo at 2.5 mg/kg / inhibition in vivo at […] / inhibition in vivo at 0.625 mg/kg / inhibition in vivo at 1.25 mg/kg: Canis lupus familiaris, iv; for inhibition in vivo at […]: 0.15 mg/kg i.v. slow perfusion
Procedure: The antiangorous activity was tested on an anaesthetized dog (sodium pentobarbital 30 mg/kg/i.v.).
The consumption of oxygen in the left ventricule was estimated by the product of the coronary venous flow and the coronary arteriovenous difference in oxygen (% volume).
The coronary venous flow was measured at the coronary venous sinus by means of a modified Morawitz cannula, introduced under radioscopic control.
The cardiac effort was estimated according to KATZ's index, by the product of the average arterial pressure and the cardiac frequency.
The cardiac frequency was estimated from the electrocardiogram recorded with D2 derivation.
It should be noted that the compounds tested were injected intravenously with slow perfusion.

[1] = 2.5 mg/kg i.v. slow perfusion, read-out: Diminution in consumption of O2
[2] = 2.5 mg/kg i.v. slow perfusion, read-out: Diminution in the cardiac effort (IK)
[3] = read-out: Diminution in consumption of O2
[4] = read-out: Diminution in the cardiac effort (IK)
[5] = 0.625 mg/kg i.v. slow perfusion
[6] = 1.25 mg/kg i.v. slow perfusion, read-out: Diminution in consumption of O2
[7] = 1.25 mg/kg i.v. slow perfusion, read-out: Diminution in the cardiac effort (IK)

| SMILES | Diminution in consumption of O2: in time (2.5 mg/kg i.v. slow perfusion) [min] | Diminution in the cardiac effort (IK): in time (2.5 mg/kg i.v. slow perfusion) [min] | inhibition in vivo at 2.5 mg/kg [1] [%] | inhibition in vivo at 2.5 mg/kg [2] [%] | other results |
| --- | --- | --- | --- | --- | --- |
| COc1cc(/C=C/C(=O)N2CCN(CC(O)COc3ccc(C(C)=O)c4c3CCC4)CC2)cc(OC)c1OC (centres unmarked) [760 852] | 30 | 45 | 44 | 23 | – |
| COc1cc(/C=C/C(=O)N2CCN(CC(O)COc3ccc(Cl)cc3C)CC2)cc(OC)c1OC (centres unmarked) [770 966] | – | 30 | 7 | 46 | – |
| CNC(=O)Nc1ccc(OCC(O)CN2CCN(C(=O)/C=C/c3cc(OC)c(OC)c(OC)c3)CC2)c2ccccc12 (centres unmarked) [771 031] | – | – | – | – | inhibition in vivo at […] [3]: 20%; inhibition in vivo at […] [4]: 25% |
| COc1cc(/C=C/C(=O)N2CCN(CC(O)COc3ccc(NC(C)=O)c4ccccc34)CC2)cc(OC)c1OC (centres unmarked) [771 036] | – | 15 | 15 | 25 | – |
| COc1cc(/C=C/C(=O)N2CCN(CC(O)COc3ccc(NC(=O)N4CCOCC4)c4c3OCCO4)CC2)cc(OC)c1OC (centres unmarked) [771 149] | – | – | – | – | inhibition in vivo at […] [3]: 12%; inhibition in vivo at […] [4]: 14% |
| CNC(=O)Nc1ccc(OCC(O)CN2CCN(C(=O)/C=C/c3cc(OC)c(OC)c(OC)c3)CC2)c2c1CCC2 (centres unmarked) [771 153] | 23 | 40 | 31 | 63 | – |
| CNC(=O)c1ccc(OCCCN2CCN(C(=O)/C=C/c3cc(OC)c(OC)c(OC)c3)CC2)c2c1OCCO2 [771 163] | – | – | – | – | Diminution in consumption of O2: in time [5]: 30 min; Diminution in the cardiac effort (IK): in time [5]: 40 min; inhibition in vivo at 0.625 mg/kg (0.625 mg/kg i.v. slow perfusion, read-out: Diminution in consumption of O2): 61%; inhibition in vivo at 0.625 mg/kg (0.625 mg/kg i.v. slow perfusion, read-out: Diminution in the cardiac effort (IK)): 20% |
| COc1cc(/C=C/C(=O)N2CCN(CCCOc3ccc(NC(C)=O)c4c3OCCO4)CC2)cc(OC)c1OC [771 172] | 15 | 23 | 25 | 29 | – |
| COc1cc(C#N)ccc1OCC(O)CN1CCN(C(=O)/C=C/c2cc(OC)c(OC)c(OC)c2)CC1 (centres unmarked) [771 281] | 30 | 30 | 23 | 44 | – |
| COc1cc(/C=C/C(=O)N2CCN(CC(O)COc3ccc(NC(C)=O)c4c3CCC4)CC2)cc(OC)c1OC (centres unmarked) [771 306] | – | – | – | – | Diminution in consumption of O2: in time (1.25 mg/kg i.v. slow perfusion): 15 min; Diminution in the cardiac effort (IK): in time (1.25 mg/kg i.v. slow perfusion): 30 min; inhibition in vivo at 1.25 mg/kg [6]: 58%; inhibition in vivo at 1.25 mg/kg [7]: 38% |
| COc1cc(/C=C/C(=O)N2CCN(CC(O)COc3ccc(C(C)=O)c4ccccc34)CC2)cc(OC)c1OC (centres unmarked) [771 315] | – | – | – | – | Diminution in the cardiac effort (IK): in time (1.25 mg/kg i.v. slow perfusion): 15 min; inhibition in vivo at 1.25 mg/kg [6]: 11%; inhibition in vivo at 1.25 mg/kg [7]: 29% |
| COc1cc(/C=C/C(=O)N2CCN(CC(O)COc3ccc(C(=O)c4ccccc4)cc3)CC2)cc(OC)c1OC (centres unmarked) [771 318] | 60 | 15 | 63 | 31 | – |
| COc1cc(/C=C/C(=O)N2CCN(CC(O)COc3ccc(OC)c4c3OCCO4)CC2)cc(OC)c1OC (centres unmarked) [780 009] | – | – | – | – | Diminution in consumption of O2: in time (1.25 mg/kg i.v. slow perfusion): 35 min; Diminution in the cardiac effort (IK): in time (1.25 mg/kg i.v. slow perfusion): 30 min; inhibition in vivo at 1.25 mg/kg [6]: 48%; inhibition in vivo at 1.25 mg/kg [7]: 20% |
| COc1cc(/C=C/C(=O)N2CCN(CC(O)COc3ccc(C(C)=O)c4c3CCCC4)CC2)cc(OC)c1OC (centres unmarked) [780 128] | 23 | 23 | 57 | 17 | – |
| CNC(=O)Nc1ccc(OCC(O)CN2CCN(C(=O)/C=C/c3cc(OC)c(OC)c(OC)c3)CC2)c(Cl)c1 (centres unmarked) [780 189] | 30 | 45 | 63 | 30 | – |
| COc1ccc(NC(=O)Nc2ccc(OCC(O)CN3CCN(C(=O)/C=C/c4cc(OC)c(OC)c(OC)c4)CC3)c3c2OCCO3)cc1 (centres unmarked) [780 223] | 90 | 90 | 62 | 35 | – |
| COc1cc(/C=C/C(=O)N2CCN(CC(O)COc3ccc(C(C)=O)c4c3OCCCO4)CC2)cc(OC)c1OC (centres unmarked) [780 241] | – | – | – | – | inhibition in vivo at […] [3]: 30%; inhibition in vivo at […] [4]: 13% |
